Source: US20050279350A1, “Methods and apparatus for relieving headaches, rhinitis and other common ailments” (priority 1999, published 2005)

Tested on: mucous membrane of the nose, nasal passages, and mouth
Assay: Effective and tolerable carbon dioxide flows found by the inventors (description)
Type: in vivo, human
Source text: Furthermore, chronic inflammation of the mucosa and associated distress, caused by extended exposure to allergens and/or antigens, may be relieved within a few minutes by repeating such carbon dioxide applications. A possible mechanism of action of the above described local carbon dioxide treatment is the following. Creating a high concentration of carbon dioxide (hypercapnia) by infusing it into the nasal passages causes a very fast lowering of the pH (making more acidic) of the mucous membranes depressing the neuronal activity (inhibiting inflammatory mediator release such as histamine) of the nerves that supply the nasal mucous membranes and connect directly to the brainstem. Asthma is known to be a comorbid disease to allergic rhinitis. […] In addition, it is known that oxygenation is improved in patients with status asthmaticus, chronic obstructive pulmonary disease, and bronchiolitis by inhalation of helium. Also, inhaled nitric oxide improves the oxygenation and ventilation of most children with acute, hypoxic respiratory failure. For this reason, these respiratory ailments can be reduced or relieved by administering the above-described treatment using carbon dioxide or helium or nitric oxide. Furthermore, headaches (e.g., migraine headaches, tension-type headaches, cluster headaches, jaw pain, facial pain) are thought to be due to triggers creating a hyperexcitability state of nerves releasing inflammatory mediators such as histamine and serotonin. For this reason, headaches can be reduced or relieved by administering the above-described carbon dioxide treatment. Epilepsy, also a nervous hyperexcitability state, is known to be a comorbid disease to headaches and antiepileptic medications are used for migraine prevention. For this reason, epilepsy can be reduced or relieved by administering the above-described carbon dioxide treatment. […] Furthermore, other gases such as nitric oxide, oxygen, helium, and others may be administered similarly as therapeutic gases via the convenient hand-held easily controlled dispenser.
Furthermore, it is desirable that the user be able to conveniently but precisely and controllably select a rate and duration of carbon dioxide flow that lies between the lower limit of effectiveness and the upper limit of tolerance. […] Flows as low as 1 cc/sec for 1-2 seconds into the nose are effective for suppression of onset of acute allergic symptoms, whereas flows of 4-5 cc/sec for 5-10 seconds are typically selected for optimum relief from a mild chronic allergy attack. For severely inflamed mucosa and/or for injection into the mouth, flows as high as 10 cc/sec or higher for as long as 15 seconds or longer often are selected for optimum relief. For the treatment of tension and migraine headaches, the flow durations can be substantially longer, as generally set forth in the Dosage Guideline (Table I) above.
At low flow rates, the presence of the carbon dioxide produces a “tingling” sensation similar to that produced during drinking of carbonated beverages that inadvertently enter the nasal passages e.g., “bubbles up the nose”. This is the effective rate and the tingling is a welcome sensation because it usually coincides with immediate relief of symptoms. Above a certain subjectively determined flow rate the sensation becomes unpleasant, which may be described as a “stinging” or “burning” sensation. At a still higher flow rate (maximum tolerable rate), the stinging sensation becomes intolerable and subjects remove the device from their nostril. […] More typically, an injection rate of up to 10 cc/sec can be tolerated for 5 seconds or more into the nose by most users and into the mouth by almost all users. It must be noted, however, that the tolerance level depends strongly on the sequential phase of the application and on the degree of inflammation and/or pain at that phase. […]

## O=C=O [carbon dioxide]
A few individuals, a second or less of injection into the nose
  tolerance level: 1-2 cc/sec
Bathing mucous membrane of nose, nasal passages and mouth with gaseous carbon dioxide
  suppression of onset of acute irritation of the mucosa: times as short as one second can suppress the onset of acute irritation of the mucosa
For 1-2 seconds into the nose, suppression of onset of acute allergic symptoms
  effective flow: ≥ 1 cc/sec
For 5-10 seconds, mild chronic allergy attack
  flow typically selected for optimum relief: 4-5 cc/sec
For 5 seconds or more, into the nose by most users and into the mouth by almost all users
  tolerated injection rate: up to 10 cc/sec
Severely inflamed mucosa and/or injection into the mouth, for as long as 15 seconds or longer
  flow often selected for optimum relief: ≥ 10 cc/sec
typically, at the onset of the first carbon dioxide injection
  tolerance level: < 3 cc/sec
